# Measurements taken from patent publication US20230287051A1, “INHIBITORS OF COMPLEMENT FACTOR C3 AND THEIR MEDICAL USES” (ZP SPV 3 K/S, priority 2020, published 2023).
# Numbered stars: 1 amine (or outer) side, 2 acyl side, 3 side chain; on linkers, the order of the positions; unused ones are H or OH. Bridge positions count the residues as written; N and C are the ends. Square brackets hold non-standard residues; d marks the D form. Side chains are listed from the residue outwards. Peptide text beside a SMILES is read from it. * marks the point of attachment. Trp(1-Me) = Cn1cc(C[C@H](N)C(=O)O)c2ccccc21; C18 diacid = O=C(O)CCCCCCCCCCCCCCCCC(=O)*; γGlu = O=C(O)[C@H](CCC(=O)[*:2])N[*:1]; AEEA = NCCOCCOCC(=O)O; CH2 = C([*:1])[*:2]; Sar = CNCC(=O)O
# Test system: classical complement pathway
# Experiment: In vitro haemolysis assay (inhibition of classical complement pathway)
# Type: cell-based
# Conditions: human serum, sensitized sheep RBC, 30 minutes at 37° C., absorbance at 405 nm, n=>2; read-out: IC50, inhibition of hemolysis
# Protocol: The in vitro effect of some of the compounds described herein was assessed by measuring their inhibitory effect of the classical complement pathway in a haemolysis assay.
# Briefly, compounds described herein and reference compounds were dissolved in DMSO and diluted in Tris/Casein Assay Buffer (10 mM Tris, 145 mM NaCl, 0.5 mM MgCl2, 0.15 mM CaCl2, and 0.1% W/V casein, adjusted to pH 7.4) as 9-point serial dilutions in a 96-well plate. Sensitized sheep red blood cells (RBC) coated with rabbit anti-sheep erythrocyte antiserum (Complement Technology, Inc., TX, USA) were washed in Tris/asein Assay Buffer. 50 μL from each well of diluted compound was added to a 96-well plate containing 50 μL diluted human serum (Complement Technology, Inc., TX, USA) and incubated for 15 minutes at room temperature. The serum dilution factor was optimized for every serum batch to obtain 70-90% of maximal haemolysis using the protocol. Then 50 μL sensitized sheep RBCs were added to all wells ([…]).
# After 30 minutes of incubation at 37° C. with gentle agitation, the reaction was stopped by addition of 50 μL Tris STOP Buffer per well (10 mM EDTA, 10 mM Tris, 145 mM NaCl adjusted to pH 7.4). The RBCs were then removed by centrifugation and the resulting supernatant measured for hemolysis by absorbance at 405 nm.
# The response was normalized relative to a positive and negative control (vehicle) to calculate the IC50 (nM) from the concentration response curve using the 4-parameter logistic (4PL) nonlinear model for curve fitting (Table 2). All values are based on n=>2 independent determinations.
row,SMILES,IC50
1,"CC[C@H](C)[C@@H]1NC(=O)[C@@H](NC(=O)[C@H](Cc2ccccc2)NC(=O)[C@H](CCC(=O)O)NC(=O)[C@H](CO)NC(C)=O)CSCSC[C@@H](C(=O)N[C@H](C(=O)NCC(=O)N[C@@H](C)C(=O)N[C@@H](CCC(=O)O)C(=O)N[C@@H](CO)C(N)=O)[C@@H](C)O)NC(=O)[C@H](CCCNC(=N)N)NC(=O)[C@H](Cc2c[nH]cn2)NC(=O)[C@H](CCC(=O)O)NC(=O)CNC(=O)[C@H](Cc2c[nH]c3ccccc23)NC(=O)[C@H](CC(=O)O)NC(=O)[C@H](CCC(N)=O)NC(=O)[C@H](Cc2cn(C)c3ccccc23)NC1=O [Compound 1, Ac-SEF[C(1)]I[[1-Me-Trp]QDWGEHR[C(1)]TGAES-[NH2]] (Ac-SEFCI[Trp(1-Me)]QDWGEHRCTGAES-NH2; linker 4-14 via CH2)",< 100 nM
2,"CC[C@H](C)[C@@H]1NC(=O)[C@@H](NC(=O)[C@H](Cc2ccccc2)NC(=O)[C@H](CCC(=O)O)NC(=O)[C@H](CO)NC(C)=O)CSCSC[C@@H](C(=O)N(C)CC(=O)N[C@@H](CCC(=O)O)C(=O)NCC(=O)N[C@@H](CCC(=O)O)C(=O)NCCOCCOCC(=O)NCCOCCOCC(=O)N[C@@H](CCCCNC(=O)CC[C@H](NC(=O)CNC(=O)CC[C@H](NC(=O)CCCCCCCCCCCCCCCCC(=O)O)C(=O)O)C(=O)O)C(N)=O)NC(=O)[C@H](CCCNC(=N)N)NC(=O)[C@H](Cc2c[nH]cn2)NC(=O)[C@H](CCC(=O)O)NC(=O)CNC(=O)[C@H](Cc2c[nH]c3ccccc23)NC(=O)[C@H](CC(=O)O)NC(=O)[C@H](CCC(N)=O)NC(=O)[C@H](Cc2cn(C)c3ccccc23)NC1=O [Compound 2, Ac-SEF[C(1)]I[1-Me-Trp]QDWGEHR[C(1)][Sar]EGE[Peg3][Peg3]-K([17-Carboxy-heptadecanoyl][yGlu]G[yGlu])-NH2] (Ac-SEFCI[Trp(1-Me)]QDWGEHRC[Sar]EGE[AEEA][AEEA]K([γGlu-Gly-γGlu-C18 diacid])-NH2; linker 4-14 via CH2)",< 500 nM
3,CC[C@H](C)[C@@H]1NC(=O)[C@@H](NC(=O)[C@H](Cc2ccccc2)NC(=O)[C@H](CCC(=O)O)NC(=O)[C@H](CO)NC(C)=O)CSCSC[C@@H](C(=O)N(C)CC(=O)N[C@@H](CCC(=O)O)C(=O)NCCOCCOCC(=O)NCCOCCOCC(=O)N[C@@H](CCCCNC(=O)CC[C@H](NC(=O)CNC(=O)CC[C@H](NC(=O)CCCCCCCCCCCCCCCCC(=O)O)C(=O)O)C(=O)O)C(N)=O)NC(=O)[C@H](CCCNC(=N)N)NC(=O)[C@H](Cc2c[nH]cn2)NC(=O)[C@H](CCC(=O)O)NC(=O)CN(C)C(=O)[C@H](Cc2c[nH]c3ccccc23)NC(=O)[C@H](CC(=O)O)NC(=O)[C@H](CCC(N)=O)NC(=O)[C@H](Cc2cn(C)c3ccccc23)NC1=O [Compound 7] (Ac-SEFCI[Trp(1-Me)]QDW[Sar]EHRC[Sar]E[AEEA][AEEA]K([γGlu-Gly-γGlu-C18 diacid])-NH2; linker 4-14 via CH2),< 500 nM
4,"CC[C@H](C)[C@@H]1NC(=O)[C@@H](NC(=O)[C@H](Cc2ccccc2)NC(=O)[C@H](CCC(=O)O)NC(C)=O)CSCSC[C@@H](C(=O)N[C@H](C(=O)N[C@@H](CCC(=O)O)C(=O)N[C@@H](C)C(=O)NCCOCCOCC(=O)NCCOCCOCC(=O)N[C@@H](CCCCNC(=O)CC[C@H](NC(=O)CNC(=O)CC[C@H](NC(=O)CCCCCCCCCCCCCCCCC(=O)O)C(=O)O)C(=O)O)C(N)=O)[C@@H](C)O)NC(=O)[C@H](CCCNC(=N)N)NC(=O)[C@H](Cc2c[nH]cn2)NC(=O)[C@H](CCC(=O)O)NC(=O)CN(C)C(=O)[C@H](Cc2c[nH]c3ccccc23)NC(=O)[C@H](CC(=O)O)NC(=O)[C@H](CCC(N)=O)NC(=O)[C@H](Cc2cn(C)c3ccccc23)NC1=O [Compound 12, Ac-EF[C(1)]I[1-Me-Trp]QDW[Sar]EHR[C(1)]TEA[Peg3][Peg3]-K([17-Carboxy-heptadecanoyl][yGlu]G[yGlu])-NH2] (Ac-EFCI[Trp(1-Me)]QDW[Sar]EHRCTEA[AEEA][AEEA]K([γGlu-Gly-γGlu-C18 diacid])-NH2; linker 3-13 via CH2)",< 100 nM
5,"CC[C@H](C)[C@@H]1NC(=O)[C@@H](NC(=O)[C@@H](NC(=O)[C@@H](Cc2ccc(O)cc2)NC(C)=O)[C@@H](C)CC)CSCSC[C@@H](C(=O)N[C@H](C(=O)N[C@@H](CCC(=O)O)C(=O)NCC(=O)N[C@@H](CCC(=O)O)C(=O)NCCOCCOCC(=O)N[C@@H](CCC(=O)O)C(=O)N[C@@H](CO)C(=O)N[C@@H](CCCCNC(=O)CC[C@H](NC(=O)CCCCCCCCCCCCCCCCC(=O)O)C(=O)O)C(N)=O)[C@@H](C)O)NC(=O)[C@H](CCCNC(=N)N)NC(=O)[C@H](Cc2c[nH]cn2)NC(=O)[C@H](CCC(=O)O)NC(=O)CN(C)C(=O)[C@H](Cc2c[nH]c3ccccc23)NC(=O)[C@H](CC(=O)O)NC(=O)[C@H](CCC(N)=O)NC(=O)[C@H](Cc2cn(C)c3ccccc23)NC1=O [Compound 15, Ac-{d}YI[C(1)]I[1-Me-Trp]QDW[Sar]EHR[C(1)]TEGE[Peg3]ES-K([17-Carboxy-heptadecanoyl][yGlu])-NH2] (Ac-[dY]ICI[Trp(1-Me)]QDW[Sar]EHRCTEGE[AEEA]ESK([γGlu-C18 diacid])-NH2; linker 3-13 via CH2)",< 250 nM
6,"CC[C@H](C)[C@@H]1NC(=O)[C@@H](NC(=O)[C@H](Cc2ccccc2)NC(=O)[C@@H](NC(=O)[C@H](CCC(N)=O)NC(=O)[C@H](CO)NC(=O)[C@H](CCC(=O)O)NC(C)=O)C(C)C)CSCSC[C@@H](C(=O)N[C@H](C(=O)N[C@@H](CCC(=O)O)C(=O)NCC(=O)N[C@@H](CCC(=O)O)C(=O)NCCOCCOCC(=O)NCCOCCOCC(=O)N[C@@H](CCCCNC(=O)CC[C@H](NC(=O)CNC(=O)CC[C@H](NC(=O)CCCCCCCCCCCCCCCCC(=O)O)C(=O)O)C(=O)O)C(N)=O)[C@@H](C)O)NC(=O)[C@H](CCCNC(=N)N)NC(=O)[C@H](Cc2c[nH]cn2)NC(=O)[C@H](CCC(=O)O)NC(=O)CN(C)C(=O)[C@H](Cc2c[nH]c3ccccc23)NC(=O)[C@H](CC(=O)O)NC(=O)[C@H](CCC(N)=O)NC(=O)[C@H](Cc2cn(C)c3ccccc23)NC1=O [Compound 23, Ac-ESQVF[C(1)]I[1-Me-Trp]QDW[Sar]EHR[C(1)]TEGE[Peg3][Peg3]-K([17-Carboxy-heptadecanoyI][yGlu]G[yGlu])-NH2] (Ac-ESQVFCI[Trp(1-Me)]QDW[Sar]EHRCTEGE[AEEA][AEEA]K([γGlu-Gly-γGlu-C18 diacid])-NH2; linker 6-16 via CH2)",< 100 nM
7,"CC[C@H](C)[C@@H]1NC(=O)[C@@H](NC(=O)[C@H](Cc2ccccc2)NC(=O)[C@@H](NC(=O)[C@H](CCC(N)=O)NC(=O)[C@H](CCC(=O)O)NC(=O)[C@H](CO)NC(=O)[C@H](CCC(=O)O)NC(C)=O)C(C)C)CSCSC[C@@H](C(=O)N[C@H](C(=O)N[C@@H](CCC(=O)O)C(=O)NCC(=O)N[C@@H](CCC(=O)O)C(=O)NCCOCCOCC(=O)NCCOCCOCC(=O)N[C@@H](CCCCNC(=O)CC[C@H](NC(=O)CNC(=O)CC[C@H](NC(=O)CCCCCCCCCCCCCCCCC(=O)O)C(=O)O)C(=O)O)C(N)=O)[C@@H](C)O)NC(=O)[C@H](CCCNC(=N)N)NC(=O)[C@H](Cc2c[nH]cn2)NC(=O)[C@H](CCC(=O)O)NC(=O)CN(C)C(=O)[C@H](Cc2c[nH]c3ccccc23)NC(=O)[C@H](CC(=O)O)NC(=O)[C@H](CCC(N)=O)NC(=O)[C@H](Cc2cn(C)c3ccccc23)NC1=O [Compound 24, Ac-ESEQVF[C(1)]I[1-Me-Trp]QDW[Sar]EHR[C(1)]TEGE[Peg3][Peg3]-K([17-Carboxy-heptadecanoyl][yGlu]G[yGlu])-NH2] (Ac-ESEQVFCI[Trp(1-Me)]QDW[Sar]EHRCTEGE[AEEA][AEEA]K([γGlu-Gly-γGlu-C18 diacid])-NH2; linker 7-17 via CH2)",< 100 nM
8,"CC[C@H](C)[C@@H]1NC(=O)[C@@H](NC(=O)[C@H](Cc2ccccc2)NC(=O)[C@H](C)NC(=O)[C@H](CCC(N)=O)NC(=O)[C@H](CCC(=O)O)NC(=O)[C@H](CO)NC(C)=O)CSCSC[C@@H](C(=O)N[C@H](C(=O)N[C@@H](CCC(=O)O)C(=O)NCC(=O)N[C@@H](CCC(=O)O)C(=O)NCCOCCOCC(=O)NCCOCCOCC(=O)N[C@@H](CCCCNC(=O)CC[C@H](NC(=O)CNC(=O)CC[C@H](NC(=O)CCCCCCCCCCCCCCCCC(=O)O)C(=O)O)C(=O)O)C(N)=O)[C@@H](C)O)NC(=O)[C@H](CCCNC(=N)N)NC(=O)[C@H](Cc2c[nH]cn2)NC(=O)[C@H](CCC(=O)O)NC(=O)CN(C)C(=O)[C@H](Cc2c[nH]c3ccccc23)NC(=O)[C@H](CC(=O)O)NC(=O)[C@H](CCC(N)=O)NC(=O)[C@H](Cc2cn(C)c3ccccc23)NC1=O [Compound 25, Ac-SEQAF[C(1)]I[1-Me-Trp]QDW[Sar]EHR[C(1)]TEGE[Peg3][Peg3]-K([17-Carboxy-heptadecanoyl][yGlu]G[yGlu])-NH2] (Ac-SEQAFCI[Trp(1-Me)]QDW[Sar]EHRCTEGE[AEEA][AEEA]K([γGlu-Gly-γGlu-C18 diacid])-NH2; linker 6-16 via CH2)",< 100 nM
